Where “and” joins values, the source holds several entries; their conditions need not be identical. Equal values may be shown once.
Legend:
[1] = Radiometabolite analysis of [18F]JHU37107 in monkey plasma / whole blood (radio-HPLC); type: in vivo, rhesus monkey (Macaca mulatta)
Experimental: To determine the arterial input function for the radiotracers injected in rhesus monkeys radioligand concentrations in the arterial plasma were corrected by the unchanged parent fraction. […] Blood samples were immediately sampled for gamma counting, and plasma harvested by centrifugation for gamma counting and radio-HPLC analysis. The unchanged plasma parent fractions were determined by radio-HPLC on an X-terra® C18 column (10 µm, 7.8 mm × 300 mm, Waters Corp., Milford, MA), and eluted with MeOH:H2O:Et3N (80:20:0.1; by volume) at an isocratic flow rate of 4.0 mL min^−1. Eluates were monitored with an in-line flow-through NaI(Tl) scintillation detector (Bioscan). Data were stored and analyzed on a PC using the software “Bio-ChromeLite”. The collection of data for each radiochromatogram was decay corrected according to its respective HPLC injection time. Plasma free fraction was determined according to our previous methods.

[2] = biological target: T1, hM4Di (Homo sapiens, UniProt P08173, A203G/Y113C); experiment: [18F]JHU37107 PET in rats expressing hM3Dq or hM4Di in the right motor cortex; type: in vivo, rat; design: expressed in transfected cells; host or cells: rat right motor cortex, AAV-transduced neurons; settings: unilateral hM4Di in right motor cortex
T1 sequence (P08173 1-479 Y113C/A203G): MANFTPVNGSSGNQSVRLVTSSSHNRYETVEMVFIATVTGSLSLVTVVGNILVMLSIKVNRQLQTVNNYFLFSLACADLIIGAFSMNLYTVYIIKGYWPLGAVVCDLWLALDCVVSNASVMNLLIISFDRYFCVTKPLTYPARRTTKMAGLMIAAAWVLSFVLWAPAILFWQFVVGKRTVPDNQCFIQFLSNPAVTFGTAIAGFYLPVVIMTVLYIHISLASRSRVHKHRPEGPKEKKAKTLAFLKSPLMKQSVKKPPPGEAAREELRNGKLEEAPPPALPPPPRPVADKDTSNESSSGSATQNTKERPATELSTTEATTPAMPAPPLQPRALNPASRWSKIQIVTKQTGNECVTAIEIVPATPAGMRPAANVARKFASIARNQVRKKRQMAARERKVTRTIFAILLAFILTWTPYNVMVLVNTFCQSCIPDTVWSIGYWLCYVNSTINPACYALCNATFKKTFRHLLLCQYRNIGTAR
Experimental: [^18F]JHU37107 was prepared via the no-carrier-added ^18F-fluorination using an FDG Nuclear Interface module (Muenster, Germany). Briefly, 4 mg precursor (8-chloro-11-(4-ethylpiperazin-1-yl)-5H-dibenzo[b,e][1,4]diazepin-2-ol) and 8 mg tris(acetonitrile)cyclopentadienylruthenium(II)hexafluorophosphate (STREM, Boston, MA) were dissolved in ethanol (0.3 mL), the solution was heated at 85 °C for 25 min and evaporated to dryness under a stream of argon gas. The residue was dissolved in DMSO (0.5 mL) and acetonitrile (0.5 mL) and the solution was added to a dry complex of [^18F]fluoride and 9 mg 1,3-bis(2,6-di-i-propylphenyl)-2-chloroimidazolium chloride (STREM). The reaction mixture was heated at 130 °C for 30 min, diluted with mixture of 0.5 mL acetonitrile, 0.5 mL water and 0.03 mL TFA and injected onto a semi-preparative HPLC column (Luna C18, 10 micron, 10 mm × 250 mm) and eluted with 23:77 (v:v) acetonitrile:water (0.1% trifluoroacetic acid) at a flow rate of 10 mL min^−1. […] The final product [^18F]JHU37107 was then analyzed by analytical HPLC (Luna C18, 10 micron, 4.6 mm × 250 mm; mobile phase 23:77 (v:v) acetonitrile:water (0.1% trifluoroacetic acid), flow rate of 3 mL min^−1; tR = 6.4 min) using a UV detector at 254 nm to determine the radiochemical purity (>95%) and specific radioactivity (152–188 GBq μmol^−1 (4100–5070 mCi μmol^−1)) at the time synthesis ended. […]

[3] = biological target: T1, hM4Di; experiment: [18F]JHU37107 PET in a monkey expressing hM4Di in the right amygdala; type: in vivo, rhesus monkey (Macaca mulatta); design: expressed in transfected cells; host or cells: rhesus monkey (Macaca mulatta) right amygdala, lentivirus-transduced neurons
Experimental: Lentivirus expressing an hM4Di-CFP fusion protein under an hSyn promoter[11] with a titer of >10^9 infectious particles was loaded into a 100 µL glass syringe (Hamilton Co., MA). The 31-gauge needle of the syringe was sheathed with a silica capillary (450 µm OD) to create a step 1 mm from the base of the aperture. The syringe was mounted in a Nanomite pump (Harvard Apparatus, Cambridge, MA). The needle was lowered through the incision in the dura mater to each of the pre-calculated target sites and 10 or 20 µL was infused at a rate of 1 µL min^−1. Each monkey received a total of between 10 and 12 injections (for a total injection volume of 120–240 µL). Post-infusion, the needle was left in situ for 10 min after each injection to allow pressure from the infusate to dissipate. The needle was then slowly removed. At the completion of the injection series the soft tissues were sutured together in anatomical layers.
[^18F]JHU37107 was prepared via the no-carrier-added ^18F-fluorination using an FDG Nuclear Interface module (Muenster, Germany). Briefly, 4 mg precursor (8-chloro-11-(4-ethylpiperazin-1-yl)-5H-dibenzo[b,e][1,4]diazepin-2-ol) and 8 mg tris(acetonitrile)cyclopentadienylruthenium(II)hexafluorophosphate (STREM, Boston, MA) were dissolved in ethanol (0.3 mL), the solution was heated at 85 °C for 25 min and evaporated to dryness under a stream of argon gas. The residue was dissolved in DMSO (0.5 mL) and acetonitrile (0.5 mL) and the solution was added to a dry complex of [^18F]fluoride and 9 mg 1,3-bis(2,6-di-i-propylphenyl)-2-chloroimidazolium chloride (STREM). The reaction mixture was heated at 130 °C for 30 min, diluted with mixture of 0.5 mL acetonitrile, 0.5 mL water and 0.03 mL TFA and injected onto a semi-preparative HPLC column (Luna C18, 10 micron, 10 mm × 250 mm) and eluted with 23:77 (v:v) acetonitrile:water (0.1% trifluoroacetic acid) at a flow rate of 10 mL min^−1. The radioactive peak corresponding to [^18F]JHU37107 (tR = 9.9 min) was collected in a reservoir containing 50 mL of water and 3 mL aq 8.4% NaHCO3 solution. The diluted product was loaded onto a solid phase extraction cartridge (Waters Oasis HLB plus light) and rinsed with 10 mL sterile saline. The product was eluted with 1000 µL of ethanol through a sterile 0.2 μm filter into a sterile, pyrogen-free vial and 10 mL saline was added through the same filter. The final product [^18F]JHU37107 was then analyzed by analytical HPLC (Luna C18, 10 micron, 4.6 mm × 250 mm; mobile phase 23:77 (v:v) acetonitrile:water (0.1% trifluoroacetic acid), flow rate of 3 mL min^−1; tR = 6.4 min) using a UV detector at 254 nm to determine the radiochemical purity (>95%) and specific radioactivity (152–188 GBq μmol^−1 (4100–5070 mCi μmol^−1)) at the time synthesis ended.
All macaque studies were acquired dynamically on the Focus 220 PET scanner (Siemens Medical Solutions, Knoxville, TN). The Focus 220 is a dedicated pre-clinical scanner with a transaxial FOV of 19 cm and an axial FOV of 7.5 cm. Image resolution is <2 mm within the central 5 cm FOV.
After initial evaluation the monkey was sedated with ketamine (10 mg kg^−1) followed by ketoprofen (as an analgesic) and glycopyrrolate (for salvia reduction), all weight dependent IM injections. The monkey would then be placed in the supine position, intubated with a tracheal tube. […] The monkey was always monitored while anesthetized. […]

[4] = system: untransfected HEK-293 cells; experiment: Negative controls of the functional assays: HEK-293 cells without DREADD; type: cell-based, human
Experimental: BRET assays were performed to detect receptor ligand-induced Gαo1 protein activation. […] Forty-eight hour after transfection cells were harvested, washed and resuspended in phosphate-buffered saline (PBS). Approximately, 200,000 cells/well were distributed in 96-well plates, and 5 µM Coelenterazine H (substrate for luciferase) was added to each well. Five minutes after addition of Coelenterazine H, ligands were added to each well. The fluorescence of the acceptor was quantified (excitation at 500 nm and emission at 540 nm for 1-s recordings) in a PheraStar FSX plate reader (BMG Labtech) to confirm the constant expression levels across experiments. In parallel, the BRET signal from the same batch of cells was determined as the ratio of the light emitted by mVenus (510–540 nm) over that emitted by RLuc (485 nm). Results were calculated for the BRET change (BRET ratio for the corresponding drug minus BRET ratio in the absence of the drug) 5 min after the addition of the ligands.
Intracellular Ca^2+ concentration was monitored using the fluorescent Ca^2+ biosensor GCaMP6f. HEK-293 cells were transfected with 7 µg/dish of the cDNA encoding for hM3Dq (Addgene #89149) or hM4Di (Addgene #89150) and 7 µg/dish of GCaMP6. Forty-eight hours after transfection, cells were harvested, washed, resuspended in Mg^2+-free Locke’s buffer pH 7.4 (154 mM NaCl, 5.6 mM KCl, 3.6 mM NaHCO3, 2.3 mM CaCl2, and 5 mM HEPES) containing 5.6 mM of glucose and approximately 200,000 cells/well were distributed in black 96-well plates. Increasing concentrations of the indicated compound were added to the cells and fluorescence intensity (excitation at 480 nm, emission at 530 nm) was measured at 18-s intervals during 250 s using a PHERAstar FSX (BMG Labtech). The net change in intracellular Ca^2+ concentration was expressed as F − F0 where F is the fluorescence at a given concentration of ligand and F0 is the average of the baseline values (fluorescence values of buffer-treated wells).

[5] = system: mu, kappa, and delta opioid receptors; experiment: Binding and enzyme target profile screen (Eurofins); settings: competitive binding screen, 10 uM
Experimental: These experiments were performed by an outside vendor (Eurofins, France). […] In each experiment, the respective reference compound was tested concurrently with the test compound to assess the assay reliability. […] Following incubation, the samples were filtered rapidly under vacuum through glass fiber filters presoaked in a buffer and rinsed several times with an ice-cold buffer using a 48-sample or 96-sample cell harvester. The filters were counted for radioactivity in a scintillation counter using a scintillation cocktail.

[6] = biological target: T2, P-gp (Homo sapiens, UniProt P08183); experiment: P-glycoprotein (P-gp) substrate assay in Caco-2 cells with and without verapamil; type: in vitro ADME; settings: Caco-2, efflux ratio with/without verapamil
T2 construct: host or cells: Caco-2
Experimental: These experiments were performed by an outside vendor (Eurofins, France). C21 was tested in P-gp substrate assessment assays at 10 µM. The A to B and B to A permeability was measured in Caco-2 cells in the presence and absence of verapamil, a P-gp inhibitor. Efflux ratios (E) were calculated based on the apparent B–A and A–B permeability with and without verapamil. In each experiment, the respective reference compound was tested concurrently with the test compound to assess the assay reliability. Fluorescein was used as the cell monolayer integrity marker. Fluorescein permeability assessment (in the A–B direction at pH 7.4 on both sides) was performed after the permeability assay for the test compound.

[7] = system: WT mice; experiment: [18F]FDG PET metabolic mapping in WT mice; type: in vivo, mouse; settings: 0.1 mg/kg
Experimental: Mice (D1-hM3Dq, D1-hM4Di or WT littermates, see above) were habituated to experimenter handling and fasted 16 h before the experiment. On the day of the experiment, mice received an IP injection of vehicle (1 ml kg^−1) and were placed back into their home cages. Ten minutes later, mice were injected (IP) with 11 MBq of 2-deoxy-2-[^18F]fluoro-D-glucose (FDG, Cardinal Health) and placed back into their home cages. After 30 min, mice were anesthetized with 1.5% isoflurane, placed on a custom-made bed of a nanoScan small animal PET/CT scanner (Mediso Medical Imaging Systems) and scanned for 20 min on a static acquisition protocol, followed by a CT scan. […] Voxel-based repeated measures with Student’s t test comparing baseline to drug were performed, and the resulting parametric images were filtered for statistically significant (p < 0.05) clusters larger than 100 contiguous voxels. All statistical parametric mapping analyses were performed using Matlab R2016 (Mathworks) and SPM12 (University College London).

[8] = biological target: T1, hM4Di; experiment: [35S]GTPgammaS autoradiography in rat brain sections expressing hM4Di; type: biochemical; design: expressed in transfected cells; host or cells: rat right motor cortex, AAV-transduced neurons; settings: 10 nM
Experimental: Sections were encircled with a hydrophobic membrane using a PAP pen (Sigma-Aldrich). Preincubation buffer was pipetted onto each slide and allowed to incubate for 20 min (50 mM Tris-HCl, 1 mM EDTA, 5 mM MgCl2 and 100 mM NaCl). The preincubation buffer was removed via aspiration and each slide was loaded with GDP in the presence of DPCPX and allowed to incubate of 60 min (Preincubation buffer, 2 mM GDP, 1 μM DPCPX, Millipore water). […] The [^35S]GTPγS cocktail was removed via aspiration and slides were washed in ice-cold washing buffer (50 mM Tris-HCl, 5 mM MgCl2, pH 7.4) for 5 min (2×) followed by a 30 s dip in ice-cold deionized water. Hydrophobic membrane was removed with a cotton swab and xylene and slides were placed into a […] covered by a BAS-SR2040 phosphor screen (FujiFilm; GE Healthcare). The slides were exposed to the phosphor screen for 3-5 days and imaged using a phosphor imager (Typhoon FLA 7000; GE Healthcare).

[9] = biological target: T1, hM4Di; experiment: Autoradiography: direct binding of [3H]clozapine, [3H]C21, [3H]C13 in monkey brain sections expressing hM4Di; design: expressed in transfected cells; host or cells: rhesus monkey (Macaca mulatta) right amygdala, lentivirus-transduced neurons; species or system rhesus monkey (Macaca mulatta); unit not given here; settings: Fig. 1 panel H; [3H]-labelled ligand; individual values; listed as CLZ
Excerpt: Flash frozen tissue (both rodents and the monkey) was sectioned (20 µm) on a cryostat (Leica, Germany) and thaw mounted onto ethanol-washed glass slides. […] Slides were air dried and placed in a Hypercassette™ (Amersham Biosciences) and covered with a BAS-TR2025 Storage Phosphor Screen (FujiFilm, Japan). The slides were exposed to the screen for 5–7 days and imaged using a phosphor imager (Typhoon FLA 7000; GE Healthcare).

T2 sequence (P08183 whole entry): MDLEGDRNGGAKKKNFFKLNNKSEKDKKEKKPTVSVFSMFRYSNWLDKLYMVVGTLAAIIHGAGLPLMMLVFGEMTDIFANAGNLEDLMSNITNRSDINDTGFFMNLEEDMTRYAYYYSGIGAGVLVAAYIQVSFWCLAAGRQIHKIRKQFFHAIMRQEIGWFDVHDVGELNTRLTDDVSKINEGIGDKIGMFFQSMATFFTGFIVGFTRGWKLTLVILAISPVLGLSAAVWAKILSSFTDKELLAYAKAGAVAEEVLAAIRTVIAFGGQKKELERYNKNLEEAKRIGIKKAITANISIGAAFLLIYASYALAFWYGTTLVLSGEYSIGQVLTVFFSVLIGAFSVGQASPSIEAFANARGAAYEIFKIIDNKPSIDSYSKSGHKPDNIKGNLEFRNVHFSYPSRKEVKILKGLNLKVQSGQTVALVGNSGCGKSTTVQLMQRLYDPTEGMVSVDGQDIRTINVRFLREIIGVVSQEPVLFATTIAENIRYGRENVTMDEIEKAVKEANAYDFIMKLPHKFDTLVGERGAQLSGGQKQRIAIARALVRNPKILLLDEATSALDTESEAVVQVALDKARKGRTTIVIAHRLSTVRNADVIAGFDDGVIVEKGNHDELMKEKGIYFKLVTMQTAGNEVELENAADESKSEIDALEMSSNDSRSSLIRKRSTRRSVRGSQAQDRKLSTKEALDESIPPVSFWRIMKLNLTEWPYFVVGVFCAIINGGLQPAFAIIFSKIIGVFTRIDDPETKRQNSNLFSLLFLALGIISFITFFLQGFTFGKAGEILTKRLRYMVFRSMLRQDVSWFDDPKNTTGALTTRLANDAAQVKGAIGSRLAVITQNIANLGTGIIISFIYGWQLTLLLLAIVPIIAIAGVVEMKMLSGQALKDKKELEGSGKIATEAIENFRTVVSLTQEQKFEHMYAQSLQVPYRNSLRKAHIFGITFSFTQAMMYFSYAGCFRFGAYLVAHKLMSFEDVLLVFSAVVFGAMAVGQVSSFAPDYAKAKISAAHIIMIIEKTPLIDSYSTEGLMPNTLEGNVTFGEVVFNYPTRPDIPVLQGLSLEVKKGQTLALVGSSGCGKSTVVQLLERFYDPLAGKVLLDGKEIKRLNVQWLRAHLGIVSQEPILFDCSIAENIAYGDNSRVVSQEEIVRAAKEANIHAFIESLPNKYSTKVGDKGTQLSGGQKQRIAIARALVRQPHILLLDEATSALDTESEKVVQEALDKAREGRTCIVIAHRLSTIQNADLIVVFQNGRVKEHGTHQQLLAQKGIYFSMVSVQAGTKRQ

Row | SMILES | parent radioactivity composition of plasma ([1]; in vitro monkey whole blood, 30 min incubation at room temperature) | parent radioactivity composition of plasma ([1]; monkey plasma, 30 min after IV administration) | parent radioactivity composition of plasma ([1]; monkey plasma, 180 min after IV administration) | PET visualization of hM4Di [2] | pharmacokinetic properties [3] | PET labelling of hM4Di ([3]; hM4Di in right amygdala) | functional response in HEK-293 cells lacking DREADDs [4] | functional response, BRET (Go-alpha-Rluc8, beta1, gamma2-mVenus), no DREADD ([4]; HEK-293 cells) | functional response, GCaMP6f, no DREADD ([4]; HEK-293 cells) | binding to opioid receptors [5] | P-gp substrate [6] | brain metabolic activity ([18F]FDG) [7] | brain metabolic activity ([18F]FDG) ([7]; listed as CLZ) | hM4Di activation measured as [35S]GTPgammaS binding [8] | tritiated ligand binding in brain tissue, CPu [9] | tritiated ligand binding in brain tissue, CTX [9] | tritiated ligand binding in brain tissue, hM4Di [9]
1 | CCN1CCN(C2=Nc3cc(Cl)ccc3Nc3ccc([18F])cc32)CC1 [[^18F]JHU37107] | 49.7% | 56% | 24.2% | permitted hM4Di visualization in both the AAV injection site as well as at known proximal and distal anatomical projection sites | favorable pharmacokinetic properties | able to directly label hM4Di receptors | – | – | – | – | – | – | – | – | – | – | –
2 | CN1CCN(C2=Nc3cc(Cl)ccc3Nc3ccccc32)CC1 [clozapine] | – | – | – | – | – | – | Neither clozapine nor C21 produced detectable functional responses | did not show any functional response | did not show any functional response | does not | none of these compounds is a substrate for P-gp | did not produce any significant changes in brain glucose metabolism | did not show any significant changes in brain metabolic activity | induces significantly greater hM4Di activation | 109.018 and 115.173 and 108.688 and 86.4656 and 88.6824 and 91.973 | 88.2005 and 122.029 and 119.221 and 97.205 and 89.8389 and 100.22 | 176.387 and 144.183 and 141.333 and 201.955 and 168.154 and 164.257
